Data from PubChem BioAssay AID1053139 (Broad Institute, 2014).
Active and inactive are the calls of the source.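 How the source made its calls: active means AC50 for cell killing below 10 µM, with the signal falling as expected; inactive means the rest, including compounds acting in the opposite direction.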

Test system: not listed separately
Experiment: HepG2 cell cytotoxicity, dose response, cytotoxicity control, ATP luminescence, dry powder, set 16 (AID 1053139)
Details: HepG2 viability, ATP luminescence (CellTiter-Glo), 72 h; at 26 µM (top of the series)
With CCCC(=O)Nc1ccc2c(c1)OC[C@H](C)N(Cc1ccc(-c3ccccn3)cc1)C[C@H](C)[C@@H](OC)CN(C)C2=O the activity change, negative = cytotoxicity was 10.3% (inactive).
In the case of CO[C@H]1CN(C)C(=O)c2ccc(NC(=O)NC(C)C)cc2OC[C@H](C)N(Cc2ccccc2)C[C@@H]1C, the activity change, negative = cytotoxicity is reported as 9.75% (inactive).
For CCCNC(=O)Nc1ccc2c(c1)OC[C@H](C)N(Cc1ccccc1)C[C@H](C)[C@@H](OC)CN(C)C2=O, the activity change, negative = cytotoxicity was 11.9% (inactive).
For CO[C@H]1CN(C)C(=O)c2ccc(NC(=O)NC(C)C)cc2OC[C@H](C)N(Cc2ccc(-c3ccccn3)cc2)C[C@@H]1C, the activity change, negative = cytotoxicity was -5.04% (inactive).
With CCCNC(=O)Nc1ccc2c(c1)OC[C@H](C)N(Cc1ccc(-c3ccccn3)cc1)C[C@H](C)[C@@H](OC)CN(C)C2=O the activity change, negative = cytotoxicity was -4.61% (inactive).
For CCCC(=O)Nc1ccc2c(c1)OC[C@H](C)N(Cc1ccccc1)C[C@H](C)[C@@H](OC)CN(C)C2=O, the activity change, negative = cytotoxicity was 6.6% (inactive).

Same assay, conditions: HepG2 viability, ATP luminescence (CellTiter-Glo), 72 h; at 50 µM (top of the series)
With CO[C@H]1CN(C)C(=O)c2cc(N)ccc2OC[C@H](C)N(Cc2ccc(-c3ccccn3)cc2)C[C@@H]1C the activity change, negative = cytotoxicity was 19.6% (inactive).
In the case of CO[C@H]1CN(C)C(=O)c2cc(NC(=O)NC(C)C)ccc2OC[C@H](C)N(Cc2ccc(-c3ccncc3)cc2)C[C@@H]1C, the activity change, negative = cytotoxicity is reported as -12.8% (inactive).
With CO[C@H]1CN(C)C(=O)c2cc(NC(=O)NC(C)C)ccc2OC[C@H](C)N(Cc2ccc(-c3cccnc3)cc2)C[C@@H]1C the activity change, negative = cytotoxicity was 40.3% (inactive).
For CO[C@H]1CN(C)C(=O)c2cc(Nc3c(NC4CCCCC4)c(=O)c3=O)ccc2OC[C@H](C)N(Cc2ccc(-c3ccccn3)cc2)C[C@@H]1C, the activity change, negative = cytotoxicity was -22.3% (inactive).
With CO[C@H]1CN(C)C(=O)c2cc(NC(=O)NC(C)C)ccc2OC[C@H](C)N(Cc2ccccn2)C[C@@H]1C the activity change, negative = cytotoxicity was 1.78% (inactive).
For CO[C@H]1CN(C)C(=O)c2cc(Nc3ncccn3)ccc2OC[C@H](C)N(Cc2ccc(-c3ccccn3)cc2)C[C@@H]1C, the activity change, negative = cytotoxicity was 15.4% (inactive).
In the case of CO[C@H]1CN(C)C(=O)c2cc(NC(=O)NC(C)C)ccc2OC[C@H](C)N(Cc2cccc(F)c2)C[C@@H]1C, the activity change, negative = cytotoxicity is reported as -1.88% (inactive).
With CCC(CC)Nc1c(Nc2ccc3c(c2)C(=O)N(C)C[C@H](OC)[C@@H](C)CN(Cc2ccc(-c4ccccn4)cc2)[C@@H](C)CO3)c(=O)c1=O the activity change, negative = cytotoxicity was -1.61% (inactive).
In the case of CO[C@H]1CN(C)C(=O)c2cc(NC(=O)NC(C)C)ccc2OC[C@H](C)N(Cc2ccc(F)cc2)C[C@@H]1C, the activity change, negative = cytotoxicity is reported as 0.295% (inactive).
With CO[C@H]1CN(C)C(=O)c2cc(Nc3c(NC(C)C)c(=O)c3=O)ccc2OC[C@H](C)N(Cc2ccc(-c3ccccn3)cc2)C[C@@H]1C the activity change, negative = cytotoxicity was -15.4% (inactive).
For CO[C@H]1CN(C)C(=O)c2cc(NC(=O)NC(C)C)ccc2OC[C@H](C)N(C(=O)c2ccc(-c3ccccn3)cc2)C[C@@H]1C, the activity change, negative = cytotoxicity was -10.3% (inactive).
In the case of CO[C@H]1CN(C)C(=O)c2cc(Nc3c(NC4CCCC4)c(=O)c3=O)ccc2OC[C@H](C)N(Cc2ccc(-c3ccccn3)cc2)C[C@@H]1C, the activity change, negative = cytotoxicity is reported as 6.09% (inactive).
In the case of CO[C@H]1CN(C)C(=O)c2cc(NC(=O)NC(C)C)ccc2OC[C@H](C)N(C(=O)c2ccccc2)C[C@@H]1C, the activity change, negative = cytotoxicity is reported as -5.8% (inactive).
With CO[C@H]1CN(C)C(=O)c2cc(NC(=O)NC(C)C)ccc2OC[C@H](C)NC[C@@H]1C the activity change, negative = cytotoxicity was -2.2% (inactive).
For CO[C@H]1CN(C)C(=O)c2cc(NC(=O)NC(C)C)ccc2OC[C@H](C)N(C(=O)Nc2ccc(-c3ccccn3)cc2)C[C@@H]1C, the activity change, negative = cytotoxicity was -15% (inactive).
In the case of CO[C@H]1CN(C)C(=O)c2cc(NC(=O)NC(C)C)ccc2OC[C@H](C)N(Cc2ccncc2)C[C@@H]1C, the activity change, negative = cytotoxicity is reported as -4.57% (inactive).
With CO[C@H]1CN(C)C(=O)c2cc(NC(=O)NC(C)C)ccc2OC[C@H](C)N(Cc2ccccc2F)C[C@@H]1C the activity change, negative = cytotoxicity was 12.7% (inactive).
With CO[C@H]1CN(C)C(=O)c2cc(NC(=O)NC(C)C)ccc2OC[C@H](C)N(Cc2ccc(-c3ccccn3)cc2)C[C@@H]1C the activity change, negative = cytotoxicity was -5.64% (inactive).
In the case of CO[C@H]1CN(C)C(=O)c2cc(NC(=O)NC(C)C)ccc2OC[C@H](C)N(Cc2cccnc2)C[C@@H]1C, the activity change, negative = cytotoxicity is reported as 6.28% (inactive).
In the case of CO[C@H]1CN(C)C(=O)c2cc(NC(=O)OC(C)C)ccc2OC[C@H](C)N(Cc2ccc(-c3ccccn3)cc2)C[C@@H]1C, the activity change, negative = cytotoxicity is reported as 12.6% (inactive).

Test system: HepG2 viability, ATP luminescence (CellTiter-Glo), 72 h
Experiment: as above
Details: not given
For CO[C@H]1CN(C)C(=O)c2cc(NC(=O)NC(C)C)ccc2OC[C@H](C)N(Cc2cncnc2)C[C@@H]1C, the AC50 was > 100 µM (inactive).
With CO[C@H]1CN(C)C(=O)c2cc(NC(=O)NC(C)C)ccc2OC[C@H](C)N(Cc2ccc(-c3cncnc3)cc2)C[C@@H]1C the AC50 was > 100 µM (inactive).
CO[C@H]1CN(C)C(=O)c2cc(Nc3c(NC4CC4)c(=O)c3=O)ccc2OC[C@H](C)N(Cc2ccc(-c3ccccn3)cc2)C[C@@H]1C showed an AC50 of 38.4 µM.
In the case of CO[C@H]1CN(C)C(=O)c2cc(NC(=O)C(C)C)ccc2OC[C@H](C)N(Cc2ccc(-c3ccccn3)cc2)C[C@@H]1C, the AC50 is reported as > 24 µM (inactive).
